We go through 1 substance from article PMC3466204 (PLoS ONE, 2012).

One experiment concerns S. mitis UCC5000. Description: Broth MIC, Gram positive. It is filed as cell-based, Streptococcus mitis. The following applies: broth microtitre, BSA pre-treated plates, 10^5 cfu ml^−1, 2-fold dilutions from 10 µM, 16 h 37°C, purified peptide, mean of triplicate assays. The procedure:
Minimum inhibitory concentration determinations for Gram positive organisms were carried out in triplicate in microtitre plates (Sarstedt). 96 well microtitre plates were pre-treated with bovine serum albumin (BSA) prior to addition of the peptides. Briefly, to each well of the microtitre plate 200 µL of phosphate buffered saline (PBS) containing 1% (w/v) bovine serum albumin (PBS/BSA) was added and incubated at 37°C for 30 min. The wells were washed with 200 µL PBS and allowed to dry. Target strains were grown overnight in the appropriate conditions and medium, subcultured into fresh broth and allowed to grow to an OD600 of ∼0.5, diluted to a final concentration of 10^5 cfu ml^−1 in a volume of 0.2 ml. Wild type nisin and nisin mutant peptides were adjusted to a 10 µM (S. mitis, B. cereus), 7.5 µM (L. monocytogenes), 5 µM (hVISA) 2.5 µM (MRSA, E. durans), or 500 nM (L. lactis strains) starting concentration and 2-fold serial dilutions of each peptide were added to the target strain.

In experiment [1] the test system is Salmonella enterica serovar Typhimurium UK1. Description: Broth MIC, Gram negative. The class given is cell-based. Particulars: cells washed in 10 mM SPB pH 7.4, 2×10^5 CFU/mL, 2 h RT with peptide, then double strength LB, RT overnight, mean of triplicate assays. An outline of the steps:
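Mid-log bacteria, washed and diluted to 2×10^5 CFU/mL in 10 mM SPB pH 7.4, were exposed to peptide for 2 h at RT with agitation, in triplicate. Double-strength LB broth was then added and plates were incubated overnight at RT; MIC is the lowest concentration inhibiting growth.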

The next experiment concerns C. sakazakii DPC 6440. Description: Agarose gel diffusion assay, peptide alone or with polymyxin B nonapeptide (PMBN). It is filed as cell-based, Cronobacter sakazakii. The procedure: Agarose-based deferred antagonism assays were carried out as follows: GM17/LB (0.03%) underlay was prepared with 10 mM sodium phosphate buffer (SPB) at pH 7.4 to which was added agarose (1% w/v agarose), autoclaved and cooled to 50°C. Bacteria grown to mid-logarithmic phase were harvested by centrifugation and washed with 10 mM SPB at pH 7.4. Bacteria were then added to 15 mls cooled underlay medium to reach a concentration of 2×10^7 colony-forming units (CFU)/mL. The inoculated medium was rapidly transferred into sterile Petri plates, allowed to solidify and dried. Wells (4.6 mm in diameter) were then made in the seeded plates. 10 µl volumes of cell-free supernatant from overnight nisin derivative producing cultures or resuspended purified peptides were then added to the wells and the plates incubated at 30°C (L. lactis) or 37°C (Gram positive strains) or RT (Gram negative strains) for 3 hours. Polymyxin B (Sigma Aldrich) was used at a concentration of 20 µg/ml. The plates were then overlaid with 15 mls of autoclaved double strength GM17 (L. lactis) or LB (Gram negatives) agarose (1% w/v agarose) overlay medium precooled to 50°C. The plates were then incubated overnight at the relevant temperature.
Polymyxin B (PMB) is a cyclic lipodecapaptide produced by bacteria of the genus Paenibacillus that acts primarily on the Gram negative cell wall, leading to rapid permeability changes in the cytoplasmic membrane and ultimately cell death. […] To that end, C. sakazakii DPC 6440 cells were treated with purified nisin A, S29G and S29A peptides alone (30 µM) or in combination with PMBN at a concentration of 20 µg/ml and determined the antimicrobial activity by agarose gel diffusion assay (Fig. 5). […] When used in combination with PMBN, a substantial synergistic effect was clearly evident (Fig. 5) but in this instance no significant difference in efficacy was observed between nisin A or either of the derivatives S29A or S29G.

Another experiment deals with E. coli. Description: Kill curve analysis. The class given is cell-based. Particulars: 33 mg/L purified peptide, 2×10^5 cfu ml^−1, 37°C for 1 hour. The procedure: (§1) Using purified peptide in each case, 10 mM sodium phosphate buffer washed C. sakazakii, E. coli and Salmonella strains were diluted to a final concentration of 2×10^5 cfu ml^−1 and were exposed to nisin A, S29G and S29A at a concentration of 33 mg/L. Following incubation at 37°C for 1 hour, bacterial growth was monitored through plate counts.

Another experiment has as its system S. typhimurium UK-1. Description: Kill curve analysis. The following applies: 33 mg/L purified peptide, 2×10^5 cfu ml^−1, 37°C for 1 hour. It is filed as cell-based, Salmonella enterica serovar Typhimurium. The procedure:
as §1

A further experiment concerns L. monocytogenes LO28. Description: Deferred antagonism assay of producing strains. It is filed as cell-based. The following applies: L. monocytogenes LO28, data not shown. The procedure:
(§2) Deferred antagonism assays were performed by replicating strains on GM17 agar plates and allowing them to grow overnight before overlaying with either GM17/BHI/TSB-YE/MH agar (0.75% w/v agar) seeded with the appropriate indicator strain. For higher throughput screening of the S29X bank, deferred antagonism assays were performed by replicating strains using a 96 pin replicator (Boekel) or spotting 5 µl of a fresh overnight culture on GM17 agar plates and allowing them to grow overnight. Following overnight growth the strains were subjected to UV radiation for 30 minutes prior to overlaying with either GM17/BHI/TS/MH agar (0.75% w/v agar) seeded with the appropriate indicator.

The test system of another experiment is S. aureus RF122. Description: Deferred antagonism assay of producing strains. It is filed as cell-based. The procedure: as §2
The next experiment relates to S. aureus SA113. Description: Deferred antagonism assay of producing strains. The following applies: zone of inhibition around producer colony. The class given is cell-based. The method, then:
as §2

Values joined by “and” are separate entries in the source; they are usually repeats but may differ in a detail not shown here. Equal entries are not always repeated. Ends that are not written are not given here.

Regarding “S29G: bioengineered nisin A derivative with a serine to glycine change at position 29 (ITSISLCTPGCKTGALMGCNMKTATCHCGIHVSK; thioether (positions not given here); not fully specified (residues 2, 5, 33, bridges); UniProt P13068 24-57, looked up, variant S29G)”, the MIC was 8.38 mg/L and 2.5 µM in the experiment on S. mitis UCC5000; 50.28 mg/L and 15 µM in experiment [1]. For the same substance, in the experiment with C. sakazakii DPC 6440 (purified peptide 30 µM alone), the “Total area of inhibitory zone, peptide alone” value turned out to be 48.2±0.7 mm^2. The “Total area of inhibitory zone, peptide + PMBN” value in the experiment with C. sakazakii DPC 6440 (purified peptide 30 µM in combination with polymyxin B nonapeptide (PMBN) 20 µg/ml) is 118.6±5.0 mm^2. For the same substance, the “Killing compared with nisin A (plate counts)” value with E. coli and with S. typhimurium UK-1 was “greater activity than wildtype nisin A” each time. The “Bioactivity of producer relative to nisin A producer” value in the experiment with L. monocytogenes LO28 is reported as “comparable to that of nisin A”; in the experiment with S. aureus RF122 it was “increases the bioactivity”; in the experiment on S. aureus SA113, “enhanced activity”.
